Experimental data: PubChem BioAssay (NCI)
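Five concentrations, 48 hours, 96-well plates. Abbreviation: GI50, concentration required for 50% inhibition of growth. The concentration for full growth arrest is given as TGI.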

Key:
Experiment in all cases: NCI tumour cell line growth inhibition, 48 h
[1] = test system: ACHN renal
[2] = test system: SF-268 CNS
[3] = test system: HCC-2998 colon
[4] = test system: EKVX NSCLC
[5] = test system: SNB-75 CNS
[6] = test system: PC-3 prostate
[7] = test system: T-47D breast
[8] = test system: NCI/ADR-RES ovarian
[9] = test system: NCI-H460 lung
[10] = test system: HCT-116 colon
[11] = test system: SF-539 CNS
[12] = test system: MOLT-4 leukemia
[13] = test system: MALME-3M melanoma
[14] = test system: MDA-MB-231 breast
[15] = test system: SNB-19 CNS
[16] = test system: UO-31 renal
[17] = test system: UACC-257 melanoma
[18] = test system: 786-0 renal
[19] = test system: HT29 colon
[20] = test system: BT-549 breast
[21] = test system: CAKI-1 renal
[22] = test system: M14 melanoma
[23] = test system: RXF 393 renal
[24] = test system: TK-10 renal
[25] = test system: SF-295 CNS
[26] = test system: SW-620 colon
[27] = test system: SR leukemia
[28] = test system: CCRF-CEM leukemia
[29] = test system: KM12 colon
[30] = test system: MDA-MB-435
[31] = test system: SK-MEL-28 melanoma
[32] = test system: UACC-62 melanoma
[33] = test system: A498 renal
[34] = test system: U251 CNS
[35] = test system: HS 578T breast
[36] = test system: OVCAR-5 ovarian
[37] = test system: HL-60(TB) leukemia
[38] = test system: HCT-15 colon
[39] = test system: DU-145 prostate
[40] = test system: A549 NSCLC
[41] = test system: OVCAR-8 ovarian
[42] = test system: HOP-92 NSCLC
[43] = test system: NCI-H522 lung
[44] = test system: SK-MEL-5 melanoma
[45] = test system: HOP-62 NSCLC
[46] = test system: MCF7 breast
[47] = test system: COLO 205 colon
[48] = test system: OVCAR-3 ovarian
[49] = test system: NCI-H226 lung
[50] = test system: NCI-H23 lung
[51] = test system: OVCAR-4 ovarian
[52] = test system: K-562 leukemia
[53] = test system: IGROV1 ovarian
[54] = test system: RPMI-8226 leukemia

CCCCCCCC(=O)OCCCC1[C@]2(C)CC[C@@]3(C)C([C@H](C)CCC=C(C)C)CC[C@]3(C)C2CC[C@]12OC2(C)C (stereo partly drawn)
GI50 [1]: 22.9 µM
TGI [1]: 45.4 µM
GI50 [2]: 27.2 µM
TGI [2]: 81.8 µM
GI50 [3]: 18.6 µM
TGI [3]: 47.5 µM
GI50 [4]: 49.7 µM
TGI [4]: > 100 µM
GI50 [5]: > 100 µM
TGI [5]: > 100 µM
GI50 [6]: 30.2 µM
TGI [6]: > 100 µM
GI50 [7]: 35.7 µM
TGI [7]: > 100 µM
GI50 [8]: 35 µM
TGI [8]: > 100 µM
GI50 [9]: 26.2 µM
TGI [9]: 71 µM
GI50 [10]: 52.2 µM
TGI [10]: > 100 µM
GI50 [11]: 26.5 µM
TGI [11]: 59.5 µM
GI50 [12]: 22.1 µM
TGI [12]: 57.1 µM
GI50 [13]: > 100 µM
TGI [13]: > 100 µM
GI50 [14]: 10.8 µM
TGI [14]: 34.6 µM
GI50 [15]: 34.5 µM
TGI [15]: 97.6 µM
GI50 [16]: 31.9 µM
TGI [16]: > 100 µM
GI50 [17]: 68.2 µM
TGI [17]: > 100 µM
GI50 [18]: > 100 µM
TGI [18]: > 100 µM
GI50 [19]: 42.3 µM
TGI [19]: > 100 µM
GI50 [20]: 88.6 µM
TGI [20]: > 100 µM
GI50 [21]: 23.8 µM
TGI [21]: 48.9 µM
GI50 [22]: > 100 µM
TGI [22]: > 100 µM
GI50 [23]: 21.3 µM
TGI [23]: 49.3 µM
GI50 [24]: 30.6 µM
TGI [24]: > 100 µM
GI50 [25]: 31.2 µM
TGI [25]: > 100 µM
GI50 [26]: 40.4 µM
TGI [26]: > 100 µM
GI50 [27]: 22.6 µM
TGI [27]: 45.7 µM
GI50 [28]: 28.4 µM
TGI [28]: 69.1 µM
GI50 [29]: 29.6 µM
TGI [29]: 84.1 µM
GI50 [30]: 36.6 µM
TGI [30]: > 100 µM
GI50 [31]: 42.4 µM
TGI [31]: > 100 µM
GI50 [32]: 17.6 µM
TGI [32]: 78 µM
GI50 [33]: > 100 µM
TGI [33]: > 100 µM
GI50 [34]: 27.7 µM
TGI [34]: 93.3 µM
GI50 [35]: 40.3 µM
TGI [35]: > 100 µM
GI50 [36]: > 100 µM
TGI [36]: > 100 µM
GI50 [37]: 28.5 µM
TGI [37]: 67.4 µM
GI50 [38]: 29.4 µM
TGI [38]: > 100 µM
GI50 [39]: 38.1 µM
TGI [39]: > 100 µM
GI50 [40]: 32.4 µM
TGI [40]: > 100 µM
GI50 [41]: 64 µM
TGI [41]: > 100 µM
GI50 [42]: 28.2 µM
TGI [42]: > 100 µM
GI50 [43]: 35.1 µM
TGI [43]: > 100 µM
GI50 [44]: 33.9 µM
TGI [44]: > 100 µM
GI50 [45]: > 100 µM
TGI [45]: > 100 µM
GI50 [46]: 34.1 µM
TGI [46]: > 100 µM
GI50 [47]: 39.7 µM
TGI [47]: > 100 µM
GI50 [48]: 24.9 µM
TGI [48]: 65.2 µM
GI50 [49]: 22.8 µM
TGI [49]: 92.3 µM
GI50 [50]: 23.1 µM
TGI [50]: 61.7 µM
GI50 [51]: 78.9 µM
TGI [51]: > 100 µM
GI50 [52]: 44.1 µM
TGI [52]: > 100 µM
GI50 [53]: 34.8 µM
TGI [53]: > 100 µM
GI50 [54]: 36.4 µM
TGI [54]: > 100 µM
